Measurements as given in PMC3354555, “Partial Purification and Characterization of Rhodanese from Rainbow Trout (Oncorhynchus mykiss) Liver” (The Scientific World Journal, 2012).

System: T1, rainbow trout liver rhodanese (thiosulphate: cyanide sulphurtransferase, EC 2.8.1.1)
T1 construct: gene tst
Conditions: 50 mM KCN, 25 mM citrate-phosphate-borate pH 10.5, 25°C; apparent; partially purified enzyme

O=S(O)(O)=S [Na2S2O3]
Km: 19.8 mM
